Data reported in EP4671246A1, “6-ALKOXYPYRAZOLOPYRIMIDINE COMPOUND AND PHARMACEUTICAL USE THEREOF” (Japan Tobacco Inc., priority 2023, dated 2024).

target: T1, NLRP3 inflammasome (Homo sapiens, UniProt Q96P20); test: Evaluation of NLRP3 inflammasome inhibitory activity (inhibition of IL-1β production in THP1-Null cells); format: cell-based; conditions: 0.5 µmol/L PMA overnight, 1 µg/mL Lipopolysaccharides 3 hours, Nigericin 7.5 µmol/L 1.5 hours, AlphaLISA Human IL-1β
T1 construct: host or cells: THP1-Null cells (PMA-differentiated, LPS-primed, nigericin-stimulated)
T1 sequence (Q96P20 whole entry): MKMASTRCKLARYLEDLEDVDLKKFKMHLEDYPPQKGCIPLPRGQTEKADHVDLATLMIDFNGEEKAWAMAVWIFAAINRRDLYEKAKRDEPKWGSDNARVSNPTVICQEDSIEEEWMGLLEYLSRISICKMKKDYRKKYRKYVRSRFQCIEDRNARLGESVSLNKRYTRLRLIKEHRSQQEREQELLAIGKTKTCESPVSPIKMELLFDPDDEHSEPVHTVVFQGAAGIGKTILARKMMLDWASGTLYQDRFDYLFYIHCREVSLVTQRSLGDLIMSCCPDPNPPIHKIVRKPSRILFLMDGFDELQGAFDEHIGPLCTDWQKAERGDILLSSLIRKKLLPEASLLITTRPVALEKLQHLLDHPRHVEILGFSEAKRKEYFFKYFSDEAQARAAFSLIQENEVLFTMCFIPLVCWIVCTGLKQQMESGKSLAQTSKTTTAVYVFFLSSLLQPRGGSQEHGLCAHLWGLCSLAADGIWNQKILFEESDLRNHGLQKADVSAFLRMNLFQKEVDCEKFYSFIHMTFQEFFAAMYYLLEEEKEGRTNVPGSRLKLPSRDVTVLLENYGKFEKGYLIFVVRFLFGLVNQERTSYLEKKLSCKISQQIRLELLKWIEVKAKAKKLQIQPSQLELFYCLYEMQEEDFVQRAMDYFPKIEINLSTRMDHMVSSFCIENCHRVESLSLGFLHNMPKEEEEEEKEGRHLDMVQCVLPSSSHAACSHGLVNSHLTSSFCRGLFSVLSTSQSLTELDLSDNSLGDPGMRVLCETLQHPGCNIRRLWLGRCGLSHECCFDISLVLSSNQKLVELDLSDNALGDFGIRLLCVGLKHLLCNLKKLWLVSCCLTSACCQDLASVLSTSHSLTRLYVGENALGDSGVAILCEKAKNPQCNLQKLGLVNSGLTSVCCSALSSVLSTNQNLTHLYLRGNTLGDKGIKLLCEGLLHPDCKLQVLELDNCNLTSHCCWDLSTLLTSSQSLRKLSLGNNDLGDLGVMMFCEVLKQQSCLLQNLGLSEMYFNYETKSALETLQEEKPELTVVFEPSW
Method: The NLRP3 inflammasome inhibitory activity of test compounds were evaluated on the basis of the inhibitory activity of the IL-1β production in THP1-Null cells (Product Number: thp-null, InvivoGen). Cells were maintained for culture in RPMI-1640 media containing 10% (v/v) fetal bovine serum, 25 mmol/L HEPES, 100 U/mL penicillin, 100 µg/mL streptomycin, 100 µg/mL normocin, and 200 µg/mL hygromycin B (set at 37°C, 5% CO2/95% air) .
Cells were suspended with media for assay containing 0.5 µmol/L PMA (RPMI-1640 media containing 10% (v/v) fetal bovine serum, 100 U/mL penicillin, and 100 µg/mL streptomycin), and the suspended cells were seeded on Corning (registered trademark) 384-well Flat Clear Bottom Black Polystyrene TC-treated Microplates (25,000 cells/25 µL/well), followed by incubation (set at 37°C, 5% CO2/95% air) overnight. The supernatant of the culture was removed, and thereto was added media for assay (25 µL/well) containing 1 µg/mL Lipopolysaccharides (Product Number: L2654, Sigma-Aldrich (registered trademark)). Then, the culture was further incubated for 3 hours (set at 37°C, 5% CO2/95% air) . The supernatant of the culture was removed. Then, a vehicle solution prepared from Opti-MEM (trademark) medium (Product Number: 31985-070, Invitrogen) was added to blank-setting wells and control-setting wells (20 µL/well), followed by incubation for 15 minutes (set at 37°C, 5% CO2/95% air). A solution containing a test compound (20 µL/well) was added to test compound-setting wells. Further, Opti-MEM (trademark) medium containing Nigericin (Product Number: N7143, Sigma-Aldrich (registered trademark)) was added to the control-setting wells and test compound-setting wells (5 µL/well), followed by incubation for 1.5 hours (set at 37°C, 5% CO2/95% air). The final concentration of Nigericin was adjusted to be 7.5 µmol/L. 5 µL/well of Opti-MEM (trademark) medium was added to the blank-setting wells. The supernatant of the culture was cryonically stored (set at -20°C) until measurement of IL-1β.
The amount of IL-1β in the culture supernatant was quantitated with AlphaLISA (registered trademark) Human IL-1β Detection Kit (Product Number: AL220C, Perkin Elmer). Fluorescence intensity was measured with a microplate reader EnSpier (Model number: 2300-00J, Perkin Elmer) or EnSight (Model number: HH34000000, Perkin Elmer) according to procedure manuals attached thereto. Inhibition rates of the test compound-setting wells were calculated on the basis of 100% for the blank-setting wells and 0% for the control-setting wells. IC50 values (i.e., 50% inhibitory concentrations) of the test compounds were calculated by logistic regression analysis.

Going from COc1nc2nn(-c3ccc(Br)cc3C)cc2c(=O)[nH]1 [Example 69] to CCc1cc(Br)ccc1-n1cc2c(=O)[nH]c(OC)nc2n1 [Example 70], the IC50 falls from 57 nM to 25 nM (2.3-fold). The second is the more potent here.

Compared with COc1nc2nn(-c3c(C)cc(C(C)(F)F)cc3C)cc2c(=O)[nH]1 [Example 71], COc1nc2nn(-c3c(C)cc(C(C)(C)F)cc3C)cc2c(=O)[nH]1 [Example 118] is 1.7-fold higher in IC50: 42 nM for the first, 73 nM for the second.

First: Cc1cc(Br)cc(C)c1-n1cc2c(=O)[nH]c(OCCC3CCOCC3)nc2n1 [Example 72]
Second: Cc1cc(C2CC2)cc(C)c1-n1cc2c(=O)[nH]c(OCCC3CCOCC3)nc2n1 [Example 73]
The IC50 of the first is 1.5-fold higher: 27 nM for the first, 18 nM for the second. The second is the more potent here.

Going from Cc1cc(C2CC2)cc(C)c1-n1cc2c(=O)[nH]c(OCCCS(=O)(=O)C(C)(C)C)nc2n1 [Example 74] to Cc1cc(C2CC2)cc(C)c1-n1cc2c(=O)[nH]c(OCCCO)nc2n1 [Example 116], the IC50 rises from 3 nM to 11 nM (3.7-fold).

Compared with COc1nc2nn(-c3c(F)cc(F)cc3Cl)cc2c(=O)[nH]1 [Example 75], COc1cc(F)c(-n2cc3c(=O)[nH]c(OC)nc3n2)c(Cl)c1 [Example 76] is 18-fold lower in IC50: 1300 nM for the first, 74 nM for the second.

Going from COc1nc2nn(-c3c(Cl)cc(F)cc3OC)cc2c(=O)[nH]1 [Example 77] to COc1nc2nn(-c3c(C)cc(F)cc3C)cc2c(=O)[nH]1 [Example 90], the IC50 falls from 2400 nM to 740 nM (3.2-fold). The second is the more potent here.

Going from COc1nc2nn(-c3c(C)cc(OC(F)F)cc3Cl)cc2c(=O)[nH]1 [Example 78] to COCc1cc(OC(F)F)cc(C)c1-n1cc2c(=O)[nH]c(OC)nc2n1 [Example 110], the IC50 rises from 40 nM to 210 nM (5.2-fold). The first is the more potent here.

Going from COc1nc2nn(-c3c(C)cc(C4CC4)cc3C)c(I)c2c(=O)[nH]1 [Example 79] to COc1nc2nn(-c3c(C)cc(C4CC4)cc3C)c(C#N)c2c(=O)[nH]1 [Example 119], the IC50 rises from 8 nM to 23 nM (2.9-fold).

CCc1cc(C2CC2)ccc1-n1cc2c(=O)[nH]c(OC)nc2n1 [Example 80] and COCc1cc(C2CC2)cc(C)c1-n1cc2c(=O)[nH]c(OC)nc2n1 [Example 92] are within 1.5-fold of each other in IC50: 17 nM for the first, 21 nM for the second.

First: COc1nc2nn(-c3ccc(Br)cc3C(C)C)cc2c(=O)[nH]1 [Example 81]
Second: COc1nc2nn(-c3cc(C)ccc3C(F)(F)F)cc2c(=O)[nH]1 [Example 97]
The IC50 of the first is 21-fold lower: 58 nM for the first, 1200 nM for the second.

COc1nc2nn(-c3cc4c(cc3Cl)OCC4)cc2c(=O)[nH]1 [Example 82] and COc1nc2nn(-c3cc4c(cc3Cl)OCCC4)cc2c(=O)[nH]1 [Example 103] are within 1.5-fold of each other in IC50: 75 nM for the first, 110 nM for the second.

First: COc1nc2nn(-c3c(C)cc(C4CC4)cc3Cl)cc2c(=O)[nH]1 [Example 83]
Second: COc1nc2nn(-c3c(C)cc(C4CC4)cc3OC(F)F)cc2c(=O)[nH]1 [Example 105]
The IC50 of the first is 1.8-fold lower: 8 nM for the first, 14 nM for the second. The first is the more potent here.

Going from COc1nc2nn(-c3c(C)cc(C(C)(F)F)cc3Cl)cc2c(=O)[nH]1 [Example 84] to CCc1cc(C(C)(F)F)cc(C)c1-n1cc2c(=O)[nH]c(OC)nc2n1 [Example 89], the IC50 falls from 45 nM to 24 nM (1.9-fold). The second is the more potent here.

CCc1cc(Br)cc(C)c1-n1cc2c(=O)[nH]c(OC)nc2n1 [Example 85] and COc1nc2nn(-c3c(C)cc(Br)cc3CF)cc2c(=O)[nH]1 [Example 115] are within 1.5-fold of each other in IC50: 12 nM for the first, 13 nM for the second.

Compared with CCc1cc(OC)cc(C)c1-n1cc2c(=O)[nH]c(OC)nc2n1 [Example 86], COCc1cc(OC)cc(C)c1-n1cc2c(=O)[nH]c(OC)nc2n1 [Example 93] is 4.7-fold higher in IC50: 49 nM for the first, 230 nM for the second.

Compared with COCc1cc(C)c(-n2cc3c(=O)[nH]c(OC)nc3n2)c(C)c1 [Example 87], CCOc1cc(C)c(-n2cc3c(=O)[nH]c(OC)nc3n2)c(C)c1 [Example 94] is 6-fold lower in IC50: 1200 nM for the first, 200 nM for the second. The second is the more potent here.

Compared with COCc1cc(Br)cc(C)c1-n1cc2c(=O)[nH]c(OC)nc2n1 [Example 88], COc1nc2nn(-c3c(C)cc(Br)cc3C#N)cc2c(=O)[nH]1 [Example 101] is 55-fold higher in IC50: 44 nM for the first, 2400 nM for the second. The first is the more potent here.

Going from CCc1c2c(=O)[nH]c(OC)nc2nn1-c1c(C)cc(OC)cc1C [Example 91] to COc1cc(C)c(-n2nc3nc(OC)[nH]c(=O)c3c2C2CC2)c(C)c1 [Example 95], the IC50 falls from 140 nM to 68 nM (2.1-fold).

Going from COc1nc2nn(-c3c(C)cc(Br)c(OC)c3C)cc2c(=O)[nH]1 [Example 96] to COc1nc2nn(-c3c(C)cc(OC)c(Br)c3C)cc2c(=O)[nH]1 [Example 100], the IC50 rises from 430 nM to 690 nM (1.6-fold). The first is the more potent here.

COc1nc2nn(-c3c(C(F)(F)F)nn(C(C)C)c3C)cc2c(=O)[nH]1 [Example 98] and Cc1c(-n2cc3c(=O)[nH]c(OCC4CC4)nc3n2)c(C(F)(F)F)nn1C(C)C [Example 102] are within 1.5-fold of each other in IC50: 500 nM for the first, 670 nM for the second.

Cc1cc(Br)cc(C)c1-n1cc2c(=O)[nH]c(OCCCO)nc2n1 [Example 99] and Cc1cc(Br)cc(C)c1-n1cc2c(=O)[nH]c(OCCCCO)nc2n1 [Example 113] are within 1.5-fold of each other in IC50: 12 nM for the first, 14 nM for the second.

First: COc1nc2nn(-c3c(C)cc(Br)cc3OC(F)F)cc2c(=O)[nH]1 [Example 104]
Second: COCCOc1nc2nn(-c3c(C)cc(Br)cc3C)cc2c(=O)[nH]1 [Example 107]
The IC50 of the first is 1.8-fold lower: 13 nM for the first, 23 nM for the second. The first is the more potent here.

Cc1cc(C2CC2)cc(C)c1-n1cc2c(=O)[nH]c(OCC(F)(F)CO)nc2n1 [Example 106] and Cc1cc(C2CC2)cc(C)c1-n1cc2c(=O)[nH]c(OCCC(C)(C)C#N)nc2n1 [Example 117] are within 1.5-fold of each other in IC50: 29 nM for the first, 31 nM for the second.

First: Cc1cc(Br)cc(C)c1-n1cc2c(=O)[nH]c(OCCC(C)(C)C#N)nc2n1 [Example 109]
Second: Cc1cc(Br)cc(C)c1-n1cc2c(=O)[nH]c(OCCCC#N)nc2n1 [Example 114]
The IC50 of the first is 3.5-fold higher: 67 nM for the first, 19 nM for the second. The second is the more potent here.

Cc1cc(Br)cc(C)c1-n1cc2c(=O)[nH]c(OC[C@H]3CCOC3)nc2n1 [Example 111] and Cc1cc(Br)cc(C)c1-n1cc2c(=O)[nH]c(OC[C@@H]3CCOC3)nc2n1 [Example 112] are within 1.5-fold of each other in IC50: 50 nM for the first, 38 nM for the second.

Compound Cc1cc(Br)cc(C)c1-n1cc2c(=O)[nH]c(OC3COC3)nc2n1 [Example 121] has an IC50 of 2400 nM.
